Measured values reported in patent US20140193802A1, “IDENTIFICATION OF AN ALTERED THERAPEUTIC SUSCEPTIBILITY TO ANTI-HCMV COMPOUNDS AND OF A RESISTANCE AGAINST ANTI-HCMV COMPOUNDS” (priority 2012, published 2014).
Like-named read-outs stand apart in the source and are kept apart here.

How the values were obtained:
Type in all cases: cell-based, human cytomegalovirus (HCMV)
RV-HG UL56-R369S = assay: GFP-RA, marker transfer mutant
Procedure: (§1) HCMV Fluorescence Reduction Assay (GFP-RA)
(§2) The susceptibilities of recombinant HCMV laboratory strains expressing GFP were determined by a GFP-based fluorescence reduction assay. For standard assays, 1.5×10^4 NHDF cells/well were cultured in black 96-well plates (Greiner Bio-One, Germany) and infected with either HCMV-GFP (MOI, 0.1) or RV-HG (MOI, 0.2 to 0.5). After virus adsorption, the virus inoculum was replaced with 200 μl fresh medium. Thereafter, 100 μl medium containing the test compounds was added to wells of horizontal row G, followed by serial 3-fold dilutions up to row A. All drug concentrations were tested at least in duplicate. Wells of the horizontal row H served as the virus control. Plates were incubated at 37° C. for 7 days. The medium was replaced by 200 μl PBS, and GFP units (GFPU) were determined by a charge-coupled-device-camera-based fluorescence detector (FluoBox; Bayer Technology Services GmbH, Leverkusen, Germany), which captures 96 images simultaneously. Drug effects were calculated as a percentage of reduction in GFPU in the presence of each drug concentration compared to the GFPU determined in the absence of drug. EC50 and EC90 values (drug concentrations producing 50% and 90% reduction in GFPU) were calculated using nonlinear regression curve fit with a variable slope. GraphPad Prism 3.02 or 4.0 software (GraphPad Software Inc., La Jolla, Calif.) was used for all analyses.
(§3) The HCMV AD169-derived bacterial artificial chromosome (BAC) pHG served as the backbone for the construction of the mutant viruses. The markerless introduction of point mutations into pHG was done using a two-step recombination protocol according to the en passant method. Briefly, a recombination fragment containing the I-SceI-AphAI cassette from plasmid pEPKan-S was obtained by PCR using primers containing ˜60 bp of homology to the intended integration site in ORF UL56 of BAC pHG and ˜20 bp specific for pEPKan-S. This fragment was electroporated into Escherichia coli GS1783 that harbored the pHG BAC. […] After successful kanamycin selection, all non-HCMV sequences were removed by an intrabacterial ISceI digest and a subsequent second Red recombination, resulting in the scarless repair of the mutated UL56 gene in the background of BAC pHG. The integrity of the generated BACs was confirmed by restriction enzyme digestion and sequencing. To reconstitute virus mutants, the recombinant BACs were transfected into permissive MRC5 cells. At least two independent virus clones per mutation were generated and evaluated.

RV-HG UL56-V231L = assay: GFP-RA, marker transfer mutant
Procedure: as §1, §2, §3

RV-HG UL56-L241P/R369S = assay: GFP-RA, marker transfer mutant; settings: for Resistance index (RI) = EC50 indicated RV-HG mutant/EC50 RV-HG wt: RV-HG UL56-L241P/R369S vs RV-HG wt
Procedure: as §1, §2, §3

RV-HG UL56-V236M = assay: GFP-RA, marker transfer mutant
Procedure: as §1, §2, §3

RV-HG UL56-L241P = assay: GFP-RA, marker transfer mutant
Procedure: as §1, §2, §3

RV-HG UL56-R369M = assay: GFP-RA, marker transfer mutant; settings: for Resistance index (RI) = EC50 indicated RV-HG mutant/EC50 RV-HG wt: RV-HG UL56-R369M vs RV-HG wt
Procedure: as §1, §2, §3

RV-HG UL56-C325Y = assay: GFP-RA, marker transfer mutant
Procedure: as §1, §2, §3

RV-HG UL56-C325Yrev = assay: GFP-RA, marker transfer revertant
Procedure: as §1, §2, §3

RV-HG (wt-HCMV) = assay: HCMV fluorescence reduction assay (GFP-RA)
Procedure: as §1, §2, §3

RV-HG-UL56 mutants = assay: GFP-RA, drug susceptibility profile of the virus mutants; settings: fluorescence reduction assays; for BAY 38-4766 and BDCRB with the exception of the strain carrying UL56 R369M
Procedure: as §1, §2
as §3, with “The integrity of the generated BACs was confirmed by restriction enzyme digestion and sequencing.” left out

[1] = Human betaherpesvirus 5, RV-HG UL56-R369S, fluorescence reduction assay, mean ± SD, read-out: EC50
[2] = Human betaherpesvirus 5, RV-HG UL56-V231L, fluorescence reduction assay, mean ± SD, read-out: EC50
[3] = Human betaherpesvirus 5, RV-HG UL56-L241P/R369S, fluorescence reduction assay, mean ± SD, read-out: EC50
[4] = Human betaherpesvirus 5, RV-HG UL56-R369M, fluorescence reduction assay, mean ± SD, read-out: EC50
[5] = Human betaherpesvirus 5, RV-HG UL56-V236M, fluorescence reduction assay, mean ± SD, read-out: EC50
[6] = Human betaherpesvirus 5, RV-HG UL56-L241P, fluorescence reduction assay, mean ± SD, read-out: EC50
[7] = Human betaherpesvirus 5, RV-HG UL56-C325Y, fluorescence reduction assay, mean ± SD, read-out: EC50
[8] = Human betaherpesvirus 5, RV-HG UL56-C325Yrev, fluorescence reduction assay, mean ± SD, read-out: EC50
[9] = Human betaherpesvirus 5, RV-HG (wt-HCMV), fluorescence reduction assay, mean ± SD, read-out: EC50

SMILES	EC50 (RV-HG UL56-R369S; [1]) [nM]	EC50 (RV-HG UL56-V231L; [2]) [nM]	EC50 (RV-HG UL56-L241P/R369S; [3]) [nM]	EC50 (RV-HG UL56-R369M; [4]) [nM]	EC50 (RV-HG UL56-V236M; [5]) [nM]	EC50 (RV-HG UL56-L241P; [6]) [nM]	EC50 (RV-HG UL56-C325Y; [7]) [nM]	EC50 (RV-HG UL56-C325Yrev; [8]) [nM]	EC50 (RV-HG (wt-HCMV); [9]) [nM]	sensitivity of the RV-HG-UL56 mutants compared with the parental wild-type virus RV-HG (RV-HG-UL56 mutants)	other results
Nc1nc2c(ncn2COCCO)c(=O)[nH]1 [Aciclovir]	45000 ± 10000	29000 ± 9000	81000 ± 33000	88000 ± 29000	–	–	–	–	–	–	EC50 (RV-HG UL56-V236M; Human betaherpesvirus 5): 80000 ± 21000 nM; EC50 (RV-HG UL56-L241P; Human betaherpesvirus 5): 53000 ± 12000 nM; EC50 (RV-HG UL56-C325Y; Human betaherpesvirus 5): 49000 ± 16000 nM; EC50 (RV-HG UL56-C325Yrev; Human betaherpesvirus 5): 55000 ± 18000 nM; EC50 (RV-HG (wt-HCMV); Human betaherpesvirus 5): 74000 ± 40000 nM
CN(C)c1cccc2c(S(=O)(=O)Nc3ccc(NC(=O)C(C)(C)CO)cc3)cccc12 [BAY384766]	–	360 ± 80	–	–	330 ± 80	340 ± 140	1070 ± 140	580 ± 60	410 ± 150	comparably active	EC50 (RV-HG UL56-R369S; Human betaherpesvirus 5): 680 ± 130 nM; EC50 (RV-HG UL56-L241P/R369S; Human betaherpesvirus 5): 840 ± 310 nM; Resistance index (RI) = EC50 indicated RV-HG mutant/EC50 RV-HG wt (RV-HG UL56-L241P/R369S): 2; EC50 (RV-HG UL56-R369M; Human betaherpesvirus 5): 1750 ± 160 nM; Resistance index (RI) = EC50 indicated RV-HG mutant/EC50 RV-HG wt (RV-HG UL56-R369M): 4
OC[C@H]1O[C@@H](n2c(Br)nc3cc(Cl)c(Cl)cc32)[C@H](O)[C@@H]1O [BDCRB]	–	–	–	–	–	–	–	–	–	comparably active	EC50 (RV-HG UL56-R369S; RV-HG UL56-R369S, fluorescence reduction assay, mean ± SD, read-out: EC50): 190 ± 20 nM; EC50 (RV-HG UL56-V231L; RV-HG UL56-V231L, fluorescence reduction assay, mean ± SD, read-out: EC50): 210 ± 40 nM; EC50 (RV-HG UL56-L241P/R369S; RV-HG UL56-L241P/R369S, fluorescence reduction assay, mean ± SD, read-out: EC50): 300 ± 140 nM; EC50 (RV-HG UL56-V236M; RV-HG UL56-V236M, fluorescence reduction assay, mean ± SD, read-out: EC50): 170 ± 30 nM; EC50 (RV-HG UL56-L241P; RV-HG UL56-L241P, fluorescence reduction assay, mean ± SD, read-out: EC50): 270 ± 40 nM; EC50 (RV-HG UL56-R369M; RV-HG UL56-R369M, fluorescence reduction assay, mean ± SD, read-out: EC50): 110 ± 50 nM; EC50 (RV-HG UL56-C325Y; RV-HG UL56-C325Y, fluorescence reduction assay, mean ± SD, read-out: EC50): 300 ± 40 nM; EC50 (RV-HG UL56-C325Yrev; RV-HG UL56-C325Yrev, fluorescence reduction assay, mean ± SD, read-out: EC50): 290 ± 40 nM; EC50 (RV-HG (wt-HCMV); RV-HG (wt-HCMV), fluorescence reduction assay, mean ± SD, read-out: EC50): 330 ± 120 nM
Nc1ccn(C[C@@H](CO)OCP(=O)(O)O)c(=O)n1 [Cidofovir]	160 ± 50	90 ± 20	200 ± 110	180 ± 110	260 ± 180	210 ± 90	350 ± 50	320 ± 130	250 ± 170	did not differ	–
N#CC1(C(=O)Nc2cc(F)cc(NS(=O)(=O)c3ccc(-c4noc(-c5cccc(N)n5)n4)cc3)c2)CC1 [Formula (X), N-{3-[({4-[5-(6-Aminopyridin-2-yl)-1,2,4-oxadiazol-3-yl]phenyl}sulfonyl)amino]-5-fluorophenyl}-1-cyanocyclopropanecarboxamide]	29.5 ± 13.7	7.1 ± 1.2	41.6 ± 18	96 ± 18	8.6 ± 1.3	18.3 ± 10	36.7 ± 3.9	31.7 ± 2.4	14.1 ± 7.9	–	Resistance index (RI) = EC50 indicated RV-HG mutant/EC50 RV-HG wt (RV-HG UL56-R369S; RV-HG UL56-R369S vs RV-HG wt): 2; Resistance index (RI) = EC50 indicated RV-HG mutant/EC50 RV-HG wt (RV-HG UL56-L241P/R369S): 3; Resistance index (RI) = EC50 indicated RV-HG mutant/EC50 RV-HG wt (RV-HG UL56-R369M): 7
O=C(O)P(=O)(O)O [Foscarnet]	61000 ± 21000	–	62000 ± 30000	76000 ± 25000	76000 ± 35000	115000 ± 71000	126000 ± 20000	178000 ± 12000	111000 ± 55000	did not differ	EC50 (RV-HG UL56-V231L; Human betaherpesvirus 5): 67000 ± 18000 nM
CC(C)Nc1nc2cc(Cl)c(Cl)cc2n1[C@H]1O[C@@H](CO)[C@H](O)[C@@H]1O [Maribavir]	80 ± 30	–	–	–	–	140 ± 70	290 ± 140	180 ± 70	180 ± 110	–	–
